Earlier results in patent publication US20220125854A1, “PREPARATION AND EXTENDED CULTURE OF VASCULAR ENDOTHELIAL PROGENITOR CELL” (PUBLIC UNIVERSITY CORPORATION NAGOYA CITY UNIVERSITY, priority 2019, published 2022).

Legend:
Settings in all cases: report
[1] = tested on: ECs derived from ES cells
[2] = tested on: ECs derived from iPS cells
HUVECs = tested on: HUVECs

NC(=O)c1ccc(-c2nc(-c3ccccn3)c(-c3ccc4c(c3)OCO4)[nH]2)cc1 [SB 43152]
proliferation potency of ECs derived from ES cells [1]: enhances the proliferation potency

C[C@@H](N)[C@H]1CC[C@H](C(=O)Nc2ccncc2)CC1 [Y-27632]
proliferation potency of ECs derived from iPS cells [2]: enhancing the proliferation potency

Cc1c[nH]c(-c2cnc(NCCNc3ccc(C#N)cn3)nc2-c2ccc(Cl)cc2Cl)n1 [CHIR 99021]
proliferation potency of HUVECs (HUVECs): enhances the proliferation potency
